Legend:
[1] = Log P value at pH 7.4; format: physicochemical; conditions: buffer
[2] = species on record: Mus musculus; test: Ataxia assessment was made immediately prior to NMDA injection using a rotarod measurement; format: functional
[3] = test system: Mus musculus; test: In vivo NMDA antagonism of compound was assessed for its ability to prevent lethality in mice due to injection of NMDA.; format: functional
[4] = target: Glutamate NMDA receptor; test: Inhibitory concentration of compound required to displace [3H]TCP 1-[ 1-(2-thienyl)cyclohexyl]piperidine in whole rat brain homogenate
[5] = test system: Mus musculus; test: In vivo NMDA antagonism of compound was assessed for its ability to prevent lethality in mice due to injection of NMDA; format: functional

| Compound | logD [1] | ED50 [2] | ED50 [3] | IC50 [4] | ED50 [5] |
| --- | --- | --- | --- | --- | --- |
| C[C@]12N[C@H](Cc3ccccc31)c1ccccc12 [DIZOCILPINE] | 2.1 | 0.1 mg/kg | 0.34 mg/kg | – | – |
| CN1CC[C@]23CCCC[C@@]12c1ccccc1CC3 | 0.53 | 0.3 mg/kg | 0.72 mg/kg | 16.8 nM | – |
| CN1C[C@@H]2Cc3ccccc3[C@]13CCCC[C@@H]23 | 0.94 | 3 mg/kg | – | 137 nM | 1.8 mg/kg |
| c1ccc2c(c1)C[C@H]1CN[C@@]23CCCC[C@@H]13 | -0.1 | 3.2 mg/kg | 3.5 mg/kg | 86 nM | – |
| CN[C@]12CCCC[C@H]1CCc1ccccc12 | 1.1 | 0.44 mg/kg | 0.54 mg/kg | 14.7 nM | – |
| c1ccc2c(c1)CC[C@@]13CCCC[C@]21NCC3 | – | 3.2 mg/kg | – | 151 nM | 3.5 mg/kg |
